Measured values as given in PMC6691788, “Design and synthesis of phthalazine-based compounds as potent anticancer agents with potential antiangiogenic activity via VEGFR-2 inhibition” (Journal of Enzyme Inhibition and Medicinal Chemistry, 2019).

Columns and labels:
UO-31 = assay: NCI 60 cell panel SRB screen; type: cell-based; conditions: Homo sapiens; UO-31, single dose 10 μM; read-out: percent cell growth promotion
SK-MEL-28 = assay: NCI 60 cell panel SRB screen; type: cell-based; conditions: Homo sapiens, SK-MEL-28, read-out: percent cell growth promotion
HOP-62 = assay: NCI 60 cell panel SRB screen; type: cell-based; conditions: Homo sapiens; HOP-62, single dose 10 μM; read-out: percent cell growth promotion
SN12C = assay: NCI 60 cell panel SRB screen; type: cell-based; conditions: Homo sapiens, single dose 10 μM, read-out: percent cell growth promotion
UACC-257 = assay: NCI 60 cell panel SRB screen; type: cell-based; conditions: Homo sapiens, UACC-257, read-out: percent cell growth promotion
A549/ATCC = assay: NCI 60 cell panel SRB screen; type: cell-based; conditions: Homo sapiens, single dose 10 μM, read-out: percent cell growth promotion
A498 = assay: NCI 60 cell panel SRB screen; type: cell-based; conditions: Homo sapiens; A498, single dose 10 μM; read-out: percent cell growth promotion
VEGFR-2 tyrosine kinase = molecular target: T1, VEGFR-2 tyrosine kinase (Homo sapiens, UniProt P35968); assay: In vitro VEGFR-2 tyrosine kinase assay (BPS Bioscience); type: biochemical; conditions: read-out: VEGFR-2 % inhibition; 10 μM concentration
T1 construct: purchased BPS Bioscience 40301
Method in brief: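 Single-point screen at 10 µM: recombinant VEGFR with poly(Glu,Tyr) 0.2 mg/ml, 10 μM ATP, Tris pH 7.4, MgCl2, BSA, 1% DMSO, 40 min at 30 °C; residual ATP read by Kinase-Glo Plus luminescence.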

SW-620 = assay: NCI 60 cell panel SRB screen; type: cell-based; conditions: Homo sapiens; SW-620, single dose 10 μM; read-out: percent cell growth promotion
MOLT-4 = assay: NCI 60 cell panel SRB screen; type: cell-based; conditions: Homo sapiens; MOLT-4, single dose 10 μM; read-out: percent cell growth promotion
NCI-H322M = assay: NCI 60 cell panel SRB screen; type: cell-based; conditions: Homo sapiens, single dose 10 μM, read-out: percent cell growth promotion
OVCAR-4 = assay: NCI 60 cell panel SRB screen; type: cell-based; conditions: Homo sapiens; OVCAR-4, single dose 10 μM; read-out: percent cell growth promotion
HT29 = assay: NCI 60 cell panel SRB screen; type: cell-based; conditions: Homo sapiens, HT-29; HT29, single dose 10 μM; read-out: percent cell growth promotion
HS 578T = assay: NCI 60 cell panel SRB screen; type: cell-based; conditions: Homo sapiens, Hs-578T, read-out: percent cell growth promotion
MDA-MB 231/ATCC = assay: NCI 60 cell panel SRB screen; type: cell-based; conditions: Homo sapiens, MDA-MB-231, read-out: percent cell growth promotion
OVCAR-8 = assay: NCI 60 cell panel SRB screen; type: cell-based; conditions: Homo sapiens; OVCAR-8, single dose 10 μM; read-out: percent cell growth promotion
CAKI-1 = assay: NCI 60 cell panel SRB screen; type: cell-based, human; conditions: Homo sapiens; CAKI-1, single dose 10 μM; read-out: percent cell growth promotion
HOP-92 = assay: NCI 60 cell panel SRB screen; type: cell-based; conditions: Homo sapiens; HOP-92, single dose 10 μM; read-out: percent cell growth promotion
SF-268 = assay: NCI 60 cell panel SRB screen; type: cell-based; conditions: Homo sapiens; SF-268, single dose 10 μM; read-out: percent cell growth promotion
NCI/ADR-RES = assay: NCI 60 cell panel SRB screen; type: cell-based; conditions: Homo sapiens, single dose 10 μM, read-out: percent cell growth promotion

T1 sequence (P35968 20-1356): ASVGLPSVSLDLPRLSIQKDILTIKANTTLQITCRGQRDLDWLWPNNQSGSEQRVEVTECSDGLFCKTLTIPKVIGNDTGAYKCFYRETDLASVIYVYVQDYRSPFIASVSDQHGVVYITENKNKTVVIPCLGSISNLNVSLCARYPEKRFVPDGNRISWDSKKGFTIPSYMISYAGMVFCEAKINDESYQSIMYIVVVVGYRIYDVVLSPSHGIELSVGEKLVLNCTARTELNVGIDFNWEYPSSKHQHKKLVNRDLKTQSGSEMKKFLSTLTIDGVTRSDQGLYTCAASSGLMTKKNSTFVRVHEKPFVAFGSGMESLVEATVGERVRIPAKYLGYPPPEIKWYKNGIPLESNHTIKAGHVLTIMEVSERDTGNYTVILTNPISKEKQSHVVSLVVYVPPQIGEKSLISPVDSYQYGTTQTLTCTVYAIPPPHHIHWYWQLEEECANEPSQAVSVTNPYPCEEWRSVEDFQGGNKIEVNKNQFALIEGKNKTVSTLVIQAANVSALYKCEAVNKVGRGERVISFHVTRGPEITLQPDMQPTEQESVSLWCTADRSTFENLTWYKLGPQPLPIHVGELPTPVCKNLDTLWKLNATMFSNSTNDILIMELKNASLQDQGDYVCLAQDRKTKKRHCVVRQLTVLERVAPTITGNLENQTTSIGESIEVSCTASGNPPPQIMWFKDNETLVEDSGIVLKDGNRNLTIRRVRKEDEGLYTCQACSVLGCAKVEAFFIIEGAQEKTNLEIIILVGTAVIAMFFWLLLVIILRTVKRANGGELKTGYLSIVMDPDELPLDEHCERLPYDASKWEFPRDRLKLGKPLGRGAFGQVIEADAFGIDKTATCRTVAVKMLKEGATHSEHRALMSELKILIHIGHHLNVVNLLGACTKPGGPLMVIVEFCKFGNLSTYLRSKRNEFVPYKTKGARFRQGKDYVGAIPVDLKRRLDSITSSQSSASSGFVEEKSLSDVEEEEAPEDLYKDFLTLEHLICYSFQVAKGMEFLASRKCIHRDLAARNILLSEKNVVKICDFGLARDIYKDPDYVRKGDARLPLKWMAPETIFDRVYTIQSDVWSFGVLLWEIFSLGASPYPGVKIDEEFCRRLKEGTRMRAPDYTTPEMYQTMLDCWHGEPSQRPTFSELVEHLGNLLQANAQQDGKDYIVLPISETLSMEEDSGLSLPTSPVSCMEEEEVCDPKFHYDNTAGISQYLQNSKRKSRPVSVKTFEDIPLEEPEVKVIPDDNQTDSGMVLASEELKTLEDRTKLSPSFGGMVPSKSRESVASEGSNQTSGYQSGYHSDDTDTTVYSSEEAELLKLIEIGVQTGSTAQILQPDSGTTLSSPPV

Compound | activity at 10 µM (UO-31) | activity at 10 µM (SK-MEL-28) | activity at 10 µM (HOP-62) | activity at 10 µM (SN12C) | activity at 10 µM (UACC-257) | activity at 10 µM (A549/ATCC) | activity at 10 µM (A498) | inhibition at 10 µM (VEGFR-2 tyrosine kinase) | activity at 10 µM (SW-620) | activity at 10 µM (MOLT-4) | activity at 10 µM (NCI-H322M) | activity at 10 µM (OVCAR-4) | activity at 10 µM (HT29) | activity at 10 µM (HS 578T) | activity at 10 µM (MDA-MB 231/ATCC) | activity at 10 µM (OVCAR-8) | activity at 10 µM (CAKI-1) | activity at 10 µM (HOP-92) | activity at 10 µM (SF-268) | activity at 10 µM (NCI/ADR-RES)
c1ccc(N2CCN(c3nncc4ccccc34)CC2)nc1 [Compound 8d, 1–(4-(Pyridin-2-yl)piperazin-1-yl)phthalazine] | 96% | 108% | 110% | 102% | 99% | 100% | 97.8% | 5% | 104% | 106% | 114% | 109% | 98.2% | 109% | 108% | 97.8% | 109% | 102% | 103% | 109%
CCOC(=O)N1CCN(c2nnc(C)c3ccccc23)CC1 [Compound 8f, Ethyl 4–(4-methylphthalazin-1-yl)piperazine-1-carboxylate] | 92.2% | 113% | 100% | 101% | 92.4% | 94.1% | 76.5% | 14% | 104% | 109% | 101% | 97.8% | 96% | 106% | 114% | 102% | 90.3% | 112% | 101% | 109%
Cc1nnc(N2CCN(c3ccccc3)CC2)c2ccccc12 [Compound 8g, 1-Methyl-4–(4-phenylpiperazin-1-yl)phthalazine] | 108% | 109% | 97.1% | 100% | 93% | 99.3% | 71.7% | 13% | 107% | 110% | 112% | 104% | 98.3% | 105% | 127% | 97.1% | 95.3% | 95.9% | 108% | 107%
